Source: patent US20120121679A1, “VIRICIDAL AND MICROBICIDAL COMPOSITIONS AND USES THEREOF” (University of Georgia Research Foundation, Inc., priority 2009, published 2012)
Read-outs that look alike come from different tables or passages of the source.

Experiments:
yeast species = test: Effect of levulinic acids plus SDS at 21° C. on various yeast species; settings: inoculum […] 10^7 CFU/ml
Feline Calicivirus (FCV) = test: Inactivation of FCV by levulinic acid plus SDS in solution, plaque assay; settings: 21° C., 1 min
Murine norovirus (MNV-1) = test: Inactivation of MNV-1 by levulinic acid plus SDS in solution, plaque assay; settings: 21° C., 1 min
S. enteritidis = test: Reduction of S. enteritidis in water treated with organic acids and SDS; assay type: cell-based, Salmonella enteritidis; settings: for Salmonella reduction in water: within 30 minutes; for S. enteritidis counts: water, 21° C.
[1] = test system: spores of Bacillus anthracis Sterne (34F2); assay type: cell-based
L. monocytogenes = assay type: cell-based, Listeria monocytogenes; settings: 21° C.
[2] = Experiment A4 absent heat, RT, 0 min
[3] = Experiment A4 absent heat, RT, 1 h
[4] = Experiment A4 absent heat, RT, 2 h
[5] = Experiment A4 absent heat, RT, 3 h
[6] = Experiment A4 absent heat, RT, 4 h
[7] = Experiment A4 with heat, 65° C., 0 min
[8] = Experiment A4 with heat, 65° C., 1 h
[9] = Experiment A4 with heat, 65° C., 2 h
[10] = Experiment A4 with heat, 65° C., 3 h
[11] = Experiment A4 with heat, 65° C., 4 h
[12] = Experiment A5 absent heat, RT, 0 min
[13] = Experiment A5 absent heat, RT, 1 h
[14] = Experiment A5 absent heat, RT, 2 h
[15] = Experiment A5 absent heat, RT, 3 h
[16] = Experiment A5 absent heat, RT, 4 h
[17] = Experiment A5 with heat, 65° C., 0 min
[18] = Experiment A5 with heat, 65° C., 1 h
[19] = Experiment A5 with heat, 65° C., 2 h
[20] = Experiment A5 with heat, 65° C., 3 h
[21] = Experiment A5 with heat, 65° C., 4 h

With CC(=O)CCC(=O)O [2.0% levulinic acid, levulinic acid] the “Yeast counts at 2 min” value (yeast species; Debaryomyces hansenii) was 4.9 log CFU/ml, the “Yeast counts at 5 min” value (yeast species; Debaryomyces hansenii) was 4.6 log CFU/ml and the “Yeast counts at 20 min” value (yeast species; Debaryomyces hansenii) was 4.7 log CFU/ml. For the same compound, the “Yeast counts at 30 min” value (yeast species; Debaryomyces hansenii) was 3.0 log CFU/ml, the “Yeast counts at 60 min” value (yeast species; Debaryomyces hansenii) was 1.3 log CFU/ml and the “Yeast counts at 2 min” value (yeast species; Geotrichum candidum) was 4.4 log CFU/ml. The “Yeast counts at 5 min” value (yeast species; Geotrichum candidum) was 4.3 log CFU/ml, the “Yeast counts at 20 min” value (yeast species; Geotrichum candidum) was 3.8 log CFU/ml and the “Yeast counts at 30 min” value (yeast species; Geotrichum candidum) was 3.4 log CFU/ml. The “Yeast counts at 60 min” value (yeast species; Geotrichum candidum) was 2.0 log CFU/ml, the “Yeast counts at 2 min” value (yeast species; Saccharomyces cerevisiae) was 5.5 log CFU/ml and the “Yeast counts at 5 min” value (yeast species; Saccharomyces cerevisiae) was 5.4 log CFU/ml. The “Yeast counts at 20 min” value (yeast species; Saccharomyces cerevisiae) was 5.3 log CFU/ml, the “Yeast counts at 30 min” value (yeast species; Saccharomyces cerevisiae) was 5.5 log CFU/ml and the “Yeast counts at 60 min” value (yeast species; Saccharomyces cerevisiae) was 5.0 log CFU/ml. The “Yeast counts at 2 min” value (yeast species; Zygosaccharomyces bailii) was 5.5 log CFU/ml, the “Yeast counts at 5 min” value (yeast species; Zygosaccharomyces bailii) was 5.4 log CFU/ml and the “Yeast counts at 20 min” value (yeast species; Zygosaccharomyces bailii) was 5.4 log CFU/ml. For the same compound, the “Yeast counts at 30 min” value (yeast species; Zygosaccharomyces bailii) was 5.4 log CFU/ml, the “Yeast counts at 60 min” value (yeast species; Zygosaccharomyces bailii) was 5.3 log CFU/ml and the “Log Reduction PFU/ml (standard deviation), FCV” value (Feline Calicivirus (FCV); listed as 2% Levulinic acid) was 0.51 (±0.34) log PFU/ml. For the same compound, the “Log Reduction PFU/ml (standard deviation), MNV-1” value (Murine norovirus (MNV-1); listed as 2% Levulinic acid) was −0.06 (±0.17) log PFU/ml.

CC(=O)CCC(=O)O [3.0% levulinic acid, levulinic acid] was tested, and the “Salmonella reduction in water” value (S. enteritidis) was 3.4 log CFU/ml, the “Salmonella reduction in water” value (S. enteritidis; listed as 3% levulinic acid) was “about 3.4 log CFU/ml” and the “CFU/ml % recovery (as compared to control flask F)” value (from here on “CFU/ml % recovery”) ([1]; Experiment A3, 0 min) was 108%. For the same compound, the “CFU/ml % recovery” value ([1]; Experiment A3, 10 min) was 81%, the “CFU/ml % recovery” value ([1]; Experiment A3, 45 min) was 55% and the “CFU/ml % recovery” value ([1]; Experiment A3, 90 min) was 64%. The “CFU/ml % recovery” value [1, 2] was 89%, the “CFU/ml % recovery” value [1, 3] was 54% and the “CFU/ml % recovery” value [1, 4] was 27%. For the same compound, the “CFU/ml % recovery” value [1, 5] was 30%, the “CFU/ml % recovery” value [1, 6] was 15% and the “CFU/ml % recovery” value [1, 7] was 70%. The “CFU/ml % recovery” value [1, 8] was 78%, the “CFU/ml % recovery” value [1, 9] was 45% and the “CFU/ml % recovery” value [1, 10] was 33%. For the same compound, the “CFU/ml % recovery” value [1, 11] was 46%, the “CFU/ml % recovery” value [1, 12] was 105% and the “CFU/ml % recovery” value [1, 13] was 80%. The “CFU/ml % recovery” value [1, 14] was 46%, the “CFU/ml % recovery” value [1, 15] was 67% and the “CFU/ml % recovery” value [1, 16] was 37%. The “CFU/ml % recovery” value [1, 17] was 75%, the “CFU/ml % recovery” value [1, 18] was 58% and the “CFU/ml % recovery” value [1, 19] was 34%. The “CFU/ml % recovery” value [1, 20] was 34%, the “CFU/ml % recovery” value [1, 21] was 14% and the “Log Reduction PFU/ml (standard deviation), FCV” value (Feline Calicivirus (FCV); listed as 3% Levulinic acid) was 0.43 (±0.23) log PFU/ml. For the same compound, the “Log Reduction PFU/ml (standard deviation), MNV-1” value (Murine norovirus (MNV-1); listed as 3% Levulinic acid) was −0.09 (±0.10) log PFU/ml.

In the case of CCCCCCCCCCCCOS(=O)(=O)[O-].[Na+] [2% SDS, sodium dodecyl sulfate], the “Recovery levels over time” value ([1]; Experiment A3) is reported as “did not decrease”, the “CFU/ml % recovery” value ([1]; Experiment A3, 0 min) is reported as 119% and the “CFU/ml % recovery” value ([1]; Experiment A3, 10 min) is reported as 65%. The “CFU/ml % recovery” value ([1]; Experiment A3, 45 min) was 94%, the “CFU/ml % recovery” value ([1]; Experiment A3, 90 min) was 144% and the “CFU/ml % recovery” value ([1]; Experiment A3, 180 min) was 95%. For the same compound, the “CFU/ml % recovery” value [1, 2] was 85%, the “CFU/ml % recovery” value [1, 3] was 90% and the “CFU/ml % recovery” value [1, 4] was 87%. The “CFU/ml % recovery” value [1, 5] was 98%, the “CFU/ml % recovery” value [1, 6] was 79% and the “CFU/ml % recovery” value [1, 7] was 48%. The “CFU/ml % recovery” value [1, 8] was 53%, the “CFU/ml % recovery” value [1, 9] was 74% and the “CFU/ml % recovery” value [1, 10] was 68%. For the same compound, the “CFU/ml % recovery” value [1, 11] was 114%, the “CFU/ml % recovery” value [1, 12] was 122% and the “CFU/ml % recovery” value [1, 13] was 117%. The “CFU/ml % recovery” value [1, 14] was 103%, the “CFU/ml % recovery” value [1, 15] was 113% and the “CFU/ml % recovery” value [1, 16] was 103%. The “CFU/ml % recovery” value [1, 17] was 71%, the “CFU/ml % recovery” value [1, 18] was 69% and the “CFU/ml % recovery” value [1, 19] was 53%. The “CFU/ml % recovery” value [1, 20] was 71%, the “CFU/ml % recovery” value [1, 21] was 54% and the “effectiveness compared with water control F” value ([1]; Experiments A4, A5) was “not more effective than the water control F”. The “Log Reduction PFU/ml (standard deviation), FCV” value (Feline Calicivirus (FCV); sulfate) was −0.05 (±0.22) log PFU/ml and the “Log Reduction PFU/ml (standard deviation), MNV-1” value (Murine norovirus (MNV-1); sulfate) was −0.23 (±0.59) log PFU/ml.

In the case of CCCCCCCCCCCCOS(=O)(=O)[O-].[Na+] [0.05% SDS, sodium dodecyl sulfate], the S. enteritidis counts (S. enteritidis; 0 min) is reported as 7.1 log CFU/ml, the S. enteritidis counts (S. enteritidis; 2 min) is reported as 7.0 log CFU/ml and the S. enteritidis counts (S. enteritidis; 5 min) is reported as 7.2 log CFU/ml. The S. enteritidis counts (S. enteritidis; 10 min) was 7.1 log CFU/ml, the S. enteritidis counts (S. enteritidis; 20 min) was 7.2 log CFU/ml and the S. enteritidis counts (S. enteritidis; 30 min) was 7.1 log CFU/ml. For the same compound, the “Salmonella reduction in water” value (S. enteritidis) was “did not reduce Salmonella cell numbers”, the L. monocytogenes counts (L. monocytogenes; 0 min) was 6.6 ± 0.3 log CFU/ml and the L. monocytogenes counts (L. monocytogenes; 2 min) was 6.4 ± 0.1 log CFU/ml. For the same compound, the L. monocytogenes counts (L. monocytogenes; 5 min) was 6.0 ± 0.1 log CFU/ml, the L. monocytogenes counts (L. monocytogenes; 10 min) was 5.0 ± 0.3 log CFU/ml and the L. monocytogenes counts (L. monocytogenes; 20 min) was 3.8 ± 0.2 log CFU/ml. For the same compound, the L. monocytogenes counts (L. monocytogenes; 30 min) was 3.3 ± 0.1 log CFU/ml, the “Log Reduction PFU/ml (standard deviation), FCV” value (Feline Calicivirus (FCV); sulfate) was −0.12 (±0.23) log PFU/ml and the “Log Reduction PFU/ml (standard deviation), MNV-1” value (Murine norovirus (MNV-1); sulfate) was −0.13 (±0.26) log PFU/ml.

With CC(=O)CCC(=O)O [0.5% levulinic acid, levulinic acid] the “Log Reduction PFU/ml (standard deviation), FCV” value (Feline Calicivirus (FCV)) was 0.09 (±0.16) log PFU/ml and the “Log Reduction PFU/ml (standard deviation), MNV-1” value (Murine norovirus (MNV-1)) was 0.09 (±0.38) log PFU/ml.
